According to patent US20250144187A1, “COMBINATION OF HYDROLASES AND ANTI-MICROORGANISM DRUGS AND USES THEREOF” (CENTRE FOR EYE AND VISION RESEARCH LIMITED, priority 2023, published 2025):

Legend:
[1] = tested on: MRSA; experiment: Time-killing curves, tedizolid phosphate/lysozyme; type: cell-based, Staphylococcus aureus; details: tedizolid phosphate + 0.5 mg/ml lysozyme, after 22 hours; dropping from the level of 10^12
Description: 3) Time-killing curves. According to standard method [Sun. H et al., Nat. Commun. 11, 5263 (2020); Thappeta, K. R. V., Vikke. Y. S., Yong. A. M. H., Chan-Park. M. B. Kline, K. A. Combined efficacy of an antimicrobial cationic peptide polymer with conventional antibiotics to combat multidrug-resistant pathogens. ACS Infect. Dis. 6, 1229-1237 (2020)], over-night cultured MRSA was diluted and aliquoted into new sterile 50 ml tubes at 1:1000 ratio. Then, the bacterial suspension was co-cultured with 0.25 or 0.5 μg/ml tedizolid phosphate, 0.5 mg/ml lysozyme or their combination at 37° C. with shaking at 50 rpm. Similar bacterial suspension without any additions served as control group. To measure their real bacterial loads to draw their kinetic time-killing curves, 20 μl of each culture was extracted at time intervals of 0, 1, 3, 6, 9, 12 and 22 hours, and then 10 μl of each sample (10-fold serial dilution) was applied onto LB-agar plate and incubated at 37° C. for 24 hours. All assays were performed in triplicate.

[2] = tested on: MRSA ocular infection; experiment: Ocular infection model, tedizolid phosphate/lysozyme; type: in vivo, C57BL/6 mice
Excerpt: 20) Ocular infection model. According to the reported method [Zhang, Z et al., Curt. Protoc, mouse Bot 7, 55-63 (2017)], 40 C57BL/6, male mice ([…]) were used to evaluate the combination effect in the ocular infection model. Specifically, all mice were divided into 5 groups (4 infected groups and 1 uninfected group, 8 mice per group). Among than, 32 mice in infected groups were infected by slowly inoculating about 2.5×10^7 CFUs of mid-log phase MRSA into each ocular surface. To collect these mid-tog phase ARA, a colony of MRSA cultured in LB-agar plate was firstly picked up and inoculated into fresh LB medium for overnight incubation at 37° C. Then, the overnight culture was diluted (1:300) into fresh LB medium for continuous culture until bacterial OD600 was about 0.6. […] Next, 2.5 μl of bacterial suspensions were slowly inoculated into each ocular surface of anesthetized C57/BL6 mouse on the side of surgical bed. […] After that, they were repeated from the air-anesthetizing room and monitored until they were fully awake, followed by retuned to their cages. […] Then, according to the standard protocol^28, 3 μl of tear fluid was gradient-diluted at 10-fold in 96-well plat to figure out the initial number of viable bacteria in tear fluid according to quantitative grown colony after overnight culture. […]

[3] = tested on: MRSA; experiment: HADA-based synthesis of nascent cell wall; parameters: species or system Staphylococcus aureus; details: cefdinir alone or combination with lysozyme, 2 hours
Description: 8) Synthesis and digestion of cell wait. According to the reported method [Kuru E et al., ACS Chem Biol 14, 2745-2756 (2019)], over-night cultured MRSA was inoculated into LB medium and cultured at 37° C. with shaking at 250 rpm until when its OD600 reached 0.6. Then, these mid-log-phase MRSA was treated with cefdinir (0.5 μg/ml), lysozyme (0.5 mg/ml) alone or their combination. Those treated with mezlocillin (1.0 μg/ml) and without any treatment served as antibiotic-control and untreated group, respectively. Meanwhile, MRSA suspension in control group was further divided into two groups. i.e., control group and no drug group, Next, 10 μM HCC-Amino-D-alanine (HADA) was added into all samples except those in no drug group, in which HADA was replaced by PBS. After 2- or 4-hour incubation, all bacteria were collected by centrifugation at 3220 g for 10 minutes and then washed by cold PBS for 3 times to remove redundant HADA.

Row | SMILES | bacterial load per ml culture [1] | expression level of SP-D in tear fluids ([2]; combination group compared with uninfected group) [fold] | bacterial load in both tear fluids and eyeball homogenates ([2]; combination therapy (0.125 mg/ml tedizolid phosphate + 100 mg/ml lysozyme)) [fold] | reduction in HADA signal intensity from nascent cell wall [3] [%]
1 | Cn1nnc(-c2ccc(-c3ccc(N4C[C@H](COP(=O)(O)O)OC4=O)cc3F)cn2)n1 [tedizolid phosphate, Tedizolid Phosphate] | 10^6 colony forming units (CFUs) | 1.5 | 0.01 | 
2 | C=CC1=C(C(=O)O)N2C(=O)[C@@H](NC(=O)/C(=N\O)c3csc(N)n3)[C@H]2SC1 [cefdinir, Cefdinir] |  |  |  | ~40
